Patent US5331090A, “CR2 ligand compositions and methods for modulating immune cell functions” (California Institute of Biological Research, priority 1989, dated 1994)
No end group written: not given here.

These substances were tested against T1, CR2 receptor on Raji cells (Homo sapiens, UniProt P20023) (assay: Inhibition of direct binding of C3-coated Zymosan to cells (rosette count)). Details: polypeptide zero to 200 ug in 100 ul, 37 C 30 min, amount behind the value not stated.
T1 construct: endogenous in cells; host or cells: Raji cells (human B lymphoblastoid, ATCC CCL 86)
T1 sequence (P20023 21-1033): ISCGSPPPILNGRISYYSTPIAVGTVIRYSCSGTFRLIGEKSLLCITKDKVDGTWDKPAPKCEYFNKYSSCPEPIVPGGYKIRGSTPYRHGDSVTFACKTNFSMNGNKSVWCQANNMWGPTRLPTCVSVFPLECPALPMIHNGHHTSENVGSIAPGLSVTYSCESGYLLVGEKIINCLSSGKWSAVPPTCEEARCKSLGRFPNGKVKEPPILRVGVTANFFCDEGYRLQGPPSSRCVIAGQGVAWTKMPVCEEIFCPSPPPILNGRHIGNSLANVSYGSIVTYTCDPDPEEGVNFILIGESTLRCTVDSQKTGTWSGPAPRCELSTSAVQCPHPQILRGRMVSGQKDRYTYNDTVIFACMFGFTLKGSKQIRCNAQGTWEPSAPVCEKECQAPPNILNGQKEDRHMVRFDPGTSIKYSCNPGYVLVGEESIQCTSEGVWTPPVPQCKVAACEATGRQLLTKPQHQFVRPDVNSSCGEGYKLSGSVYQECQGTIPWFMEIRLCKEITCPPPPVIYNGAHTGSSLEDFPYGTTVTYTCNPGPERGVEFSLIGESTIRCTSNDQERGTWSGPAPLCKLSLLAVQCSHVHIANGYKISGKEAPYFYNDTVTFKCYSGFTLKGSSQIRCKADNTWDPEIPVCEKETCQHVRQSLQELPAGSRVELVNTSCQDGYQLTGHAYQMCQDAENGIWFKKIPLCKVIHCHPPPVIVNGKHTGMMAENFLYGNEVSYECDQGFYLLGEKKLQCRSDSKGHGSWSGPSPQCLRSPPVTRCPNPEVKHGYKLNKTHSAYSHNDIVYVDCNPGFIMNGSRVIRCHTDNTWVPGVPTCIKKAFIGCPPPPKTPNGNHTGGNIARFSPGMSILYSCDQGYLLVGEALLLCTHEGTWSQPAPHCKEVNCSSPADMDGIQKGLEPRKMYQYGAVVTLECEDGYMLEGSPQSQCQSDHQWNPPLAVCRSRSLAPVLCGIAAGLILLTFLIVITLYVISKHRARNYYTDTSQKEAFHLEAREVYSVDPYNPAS
Description: Fresh blood from a healthy donor was collected and maintained at room temperature for 2 hours. Then the blood was centrifuged at 2000 x g for about 10 min and the resulting supernatant was collected. Five mg of Zymosan A particles (Sigma Chemical Co., St. Louis, Mo.) were boiled for 30 min in 20 ml of 150 mM NaCl and washed three times in phosphate-buffered saline (PBS) to form activated Zymosan. One mg of activated Zymosan particles was admixed with 0.5 ml of blood supernatant and maintained at 37 C. for 30 min, and then was washed 3 times in PBS. The washed particles were then resuspended in PBS at a concentration of 0.5 mg/ml to form a C3 -coated Zymosan composition.
Cultures containing 10^5 Raji or HSB2 cells were admixed with varying amounts (zero to 200 ug) of the polypeptides shown in Table 2 in a volume of 100 microliters (ul) of culture medium and the admixture was maintained at 37C for 30 min to allow CR2 ligand polypeptides to bind any CR2 receptor present on the cells. Thereafter, 50 ul of C3 -coated Zymosan composition was added to each culture, the cultures were subjected to centrifugation for 1 min at 600×g and then maintained at 37 C. for 30 min. The maintained cultures were then washed with prewarmed culture medium to rinse off non-bound particles. Washed cultures were observed using a microscope to detect and count the number of particles (rosettes) attached per cell. More than 3 rosettes per cell was counted as C3 specific binding. Inhibition is expressed as the percent decrease in bound rosettes when comparing binding in the presence or absence of admixed polypeptide.

Inhibition of direct binding of C3-coated Zymosan to cells (percent decrease in bound rosettes) [%] | Substance
70 | LYNVEAT [LYNVEAT]
35 | NSGVEA [NSGVEA]
0 | SRRGDMS [SRRGDMS]
